In this assay the target is TEK receptor tyrosine kinase (Homo sapiens, UniProt Q02763). Nature of the assay: phospho-TEK ELISA on lysates of Ang1-stimulated HUVECs. Format: cell-based.
TEK receptor tyrosine kinase, sequence (Q02763 23-1124): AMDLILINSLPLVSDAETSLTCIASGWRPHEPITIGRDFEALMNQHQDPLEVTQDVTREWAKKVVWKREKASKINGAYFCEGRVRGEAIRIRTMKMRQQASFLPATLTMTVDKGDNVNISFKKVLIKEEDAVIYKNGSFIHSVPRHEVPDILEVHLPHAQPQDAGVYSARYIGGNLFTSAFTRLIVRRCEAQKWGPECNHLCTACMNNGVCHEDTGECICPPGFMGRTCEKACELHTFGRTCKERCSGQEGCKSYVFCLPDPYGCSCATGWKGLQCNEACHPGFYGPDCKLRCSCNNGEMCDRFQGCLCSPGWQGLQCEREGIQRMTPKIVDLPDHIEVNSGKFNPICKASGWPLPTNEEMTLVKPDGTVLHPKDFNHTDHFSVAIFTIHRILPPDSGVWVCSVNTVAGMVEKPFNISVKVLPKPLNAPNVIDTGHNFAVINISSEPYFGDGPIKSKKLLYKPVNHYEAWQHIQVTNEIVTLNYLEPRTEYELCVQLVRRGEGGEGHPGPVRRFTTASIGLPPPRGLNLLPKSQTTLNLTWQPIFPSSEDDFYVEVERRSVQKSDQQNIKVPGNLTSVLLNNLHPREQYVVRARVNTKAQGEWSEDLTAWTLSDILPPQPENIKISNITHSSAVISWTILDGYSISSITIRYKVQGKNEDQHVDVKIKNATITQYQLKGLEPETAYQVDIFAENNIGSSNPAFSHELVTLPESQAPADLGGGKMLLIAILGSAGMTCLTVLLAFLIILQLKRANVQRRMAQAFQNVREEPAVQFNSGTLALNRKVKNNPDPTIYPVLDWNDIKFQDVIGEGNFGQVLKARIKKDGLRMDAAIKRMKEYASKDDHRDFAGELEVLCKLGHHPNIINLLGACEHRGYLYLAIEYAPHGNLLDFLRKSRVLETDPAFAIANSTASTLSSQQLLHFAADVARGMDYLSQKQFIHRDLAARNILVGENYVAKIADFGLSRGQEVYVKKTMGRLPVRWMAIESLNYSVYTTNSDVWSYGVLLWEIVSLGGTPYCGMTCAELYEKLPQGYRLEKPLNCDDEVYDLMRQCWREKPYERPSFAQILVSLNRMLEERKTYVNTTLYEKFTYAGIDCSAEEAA

Turning to `c1cc(-c2cnn3cc(-c4ccc(OCCN5CCCCC5)cc4)cnc23)ccn1` [DM, Dorsomorphin], the midpoint of inhibition, the IC50, lay at 4.72 µM.

For the origin of these results see PMC10480310 (iScience, 2023).
